From ChEMBL document CHEMBL1201862, “PubChem BioAssay data set” (2004)
The source made the active and inactive calls.

Legend:
Galanin receptor type 3 = Galanin receptor type 3 (Homo sapiens, UniProt O60755); experiment: Fluorescence-based cell-based primary high throughput dose response assay to identify antagonists of the Galanin Receptor 3 (GalR3).; assay type: functional
cells [1] = assay type: functional, cell-based; conditions: HEK-CNG
H9c2 = experiment: cells; assay type: functional, cell-based; conditions: Rattus norvegicus, H9c2, Myocardium;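 note: confirmatory concentration-response retest of ultra-high-throughput screening hits for modulation of myocardial damage; cell death induced by hydrogen peroxide oxidative stress; compound pretreatment for 60 min then peroxide exposure for 2 h; potency is for protecting the cells against peroxide damage rather than for killing them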
[2] = target: T1, Tyrosine-protein phosphatase non-receptor type 11 (Homo sapiens, UniProt Q06124); experiment: SHP2 phosphatase inhibition, dose response, selectivity assay for STEP inhibitor project, biochemical (AID 602367); assay type: functional; conditions: read-out: IC50_Mean
T1 sequence (Q06124 whole entry): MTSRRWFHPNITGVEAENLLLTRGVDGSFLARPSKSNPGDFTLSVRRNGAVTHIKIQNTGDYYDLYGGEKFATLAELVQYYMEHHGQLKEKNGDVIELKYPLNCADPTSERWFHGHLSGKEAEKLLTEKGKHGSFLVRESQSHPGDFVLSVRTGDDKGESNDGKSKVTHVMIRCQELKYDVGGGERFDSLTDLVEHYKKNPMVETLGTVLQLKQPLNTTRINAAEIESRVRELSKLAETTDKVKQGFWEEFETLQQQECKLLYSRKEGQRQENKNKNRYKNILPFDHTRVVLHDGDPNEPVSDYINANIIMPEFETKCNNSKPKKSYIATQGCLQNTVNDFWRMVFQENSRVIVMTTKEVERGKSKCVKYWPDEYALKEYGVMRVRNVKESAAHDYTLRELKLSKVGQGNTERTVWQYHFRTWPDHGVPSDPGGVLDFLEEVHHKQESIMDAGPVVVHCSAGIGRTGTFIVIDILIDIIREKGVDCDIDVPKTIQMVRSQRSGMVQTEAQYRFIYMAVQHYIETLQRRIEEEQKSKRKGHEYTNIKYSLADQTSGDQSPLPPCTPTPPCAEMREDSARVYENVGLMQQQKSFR

[3] = target: Dual specificity protein phosphatase 3 (Homo sapiens, UniProt P51452); experiment: VHR phosphatase inhibition, dose response, selectivity assay for STEP inhibitor project, biochemical (AID 602374); assay type: functional; conditions: read-out: IC50_Mean
[4] = target: T2, Tyrosine-protein phosphatase non-receptor type 5 (Homo sapiens, UniProt P54829); experiment: STEP phosphatase inhibitors, confirmation, biochemical, fluorescence intensity, uHTS hits (AID 602372); assay type: functional; conditions: read-out: IC50_Mean
T2 sequence (P54829 whole entry): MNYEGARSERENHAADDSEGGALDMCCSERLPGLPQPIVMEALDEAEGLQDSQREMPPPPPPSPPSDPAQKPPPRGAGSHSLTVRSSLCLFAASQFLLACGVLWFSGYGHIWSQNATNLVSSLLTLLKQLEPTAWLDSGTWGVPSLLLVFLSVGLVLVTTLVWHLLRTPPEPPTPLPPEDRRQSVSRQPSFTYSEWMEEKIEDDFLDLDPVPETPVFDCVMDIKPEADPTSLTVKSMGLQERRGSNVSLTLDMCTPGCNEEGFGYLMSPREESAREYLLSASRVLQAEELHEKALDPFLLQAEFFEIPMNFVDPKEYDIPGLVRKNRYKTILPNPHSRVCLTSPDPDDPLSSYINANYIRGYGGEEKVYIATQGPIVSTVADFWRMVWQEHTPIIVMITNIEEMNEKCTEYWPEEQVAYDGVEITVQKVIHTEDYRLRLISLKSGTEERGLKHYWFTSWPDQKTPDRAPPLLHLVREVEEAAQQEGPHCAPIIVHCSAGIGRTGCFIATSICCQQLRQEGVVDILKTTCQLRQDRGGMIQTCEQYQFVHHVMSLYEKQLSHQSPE

[5] = target: T3, Tyrosine-protein phosphatase non-receptor type 22 (Homo sapiens, UniProt Q9Y2R2); experiment: PTPN22 phosphatase inhibition, dose response, selectivity assay for STEP inhibitor project, biochemical (AID 624241); assay type: functional
T3 sequence (Q9Y2R2 whole entry): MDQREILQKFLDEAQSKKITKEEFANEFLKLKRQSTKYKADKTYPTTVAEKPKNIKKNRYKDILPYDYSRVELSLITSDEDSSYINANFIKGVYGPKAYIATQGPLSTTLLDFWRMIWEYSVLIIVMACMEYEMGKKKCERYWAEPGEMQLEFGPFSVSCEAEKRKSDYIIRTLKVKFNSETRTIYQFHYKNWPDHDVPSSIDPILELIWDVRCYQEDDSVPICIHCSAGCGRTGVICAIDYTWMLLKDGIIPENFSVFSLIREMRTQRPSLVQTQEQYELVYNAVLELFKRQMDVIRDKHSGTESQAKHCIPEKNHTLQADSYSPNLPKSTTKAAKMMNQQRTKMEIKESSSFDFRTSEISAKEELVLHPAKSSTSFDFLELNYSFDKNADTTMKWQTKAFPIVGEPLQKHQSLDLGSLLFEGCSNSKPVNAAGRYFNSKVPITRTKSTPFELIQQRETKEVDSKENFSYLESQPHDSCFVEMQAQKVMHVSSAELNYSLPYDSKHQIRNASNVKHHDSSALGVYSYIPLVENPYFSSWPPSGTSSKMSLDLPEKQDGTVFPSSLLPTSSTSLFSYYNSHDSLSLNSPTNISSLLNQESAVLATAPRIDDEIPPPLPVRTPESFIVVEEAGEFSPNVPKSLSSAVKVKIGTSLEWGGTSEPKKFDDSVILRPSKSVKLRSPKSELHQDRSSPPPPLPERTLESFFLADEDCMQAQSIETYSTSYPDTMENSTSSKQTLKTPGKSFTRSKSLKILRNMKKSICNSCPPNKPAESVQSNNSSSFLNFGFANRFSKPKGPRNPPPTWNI

cells [6] = assay type: functional, cell-based
[7] = target: T4, Short transient receptor potential channel 4 (Mus musculus, UniProt Q9QUQ5); experiment: mouse TRPC4 channel activators, dose response, cell-based, HEK293 TRPC4/mu-opioid, Fluo-4 calcium (AID 434937); assay type: functional
T4 sequence (Q9QUQ5 whole entry): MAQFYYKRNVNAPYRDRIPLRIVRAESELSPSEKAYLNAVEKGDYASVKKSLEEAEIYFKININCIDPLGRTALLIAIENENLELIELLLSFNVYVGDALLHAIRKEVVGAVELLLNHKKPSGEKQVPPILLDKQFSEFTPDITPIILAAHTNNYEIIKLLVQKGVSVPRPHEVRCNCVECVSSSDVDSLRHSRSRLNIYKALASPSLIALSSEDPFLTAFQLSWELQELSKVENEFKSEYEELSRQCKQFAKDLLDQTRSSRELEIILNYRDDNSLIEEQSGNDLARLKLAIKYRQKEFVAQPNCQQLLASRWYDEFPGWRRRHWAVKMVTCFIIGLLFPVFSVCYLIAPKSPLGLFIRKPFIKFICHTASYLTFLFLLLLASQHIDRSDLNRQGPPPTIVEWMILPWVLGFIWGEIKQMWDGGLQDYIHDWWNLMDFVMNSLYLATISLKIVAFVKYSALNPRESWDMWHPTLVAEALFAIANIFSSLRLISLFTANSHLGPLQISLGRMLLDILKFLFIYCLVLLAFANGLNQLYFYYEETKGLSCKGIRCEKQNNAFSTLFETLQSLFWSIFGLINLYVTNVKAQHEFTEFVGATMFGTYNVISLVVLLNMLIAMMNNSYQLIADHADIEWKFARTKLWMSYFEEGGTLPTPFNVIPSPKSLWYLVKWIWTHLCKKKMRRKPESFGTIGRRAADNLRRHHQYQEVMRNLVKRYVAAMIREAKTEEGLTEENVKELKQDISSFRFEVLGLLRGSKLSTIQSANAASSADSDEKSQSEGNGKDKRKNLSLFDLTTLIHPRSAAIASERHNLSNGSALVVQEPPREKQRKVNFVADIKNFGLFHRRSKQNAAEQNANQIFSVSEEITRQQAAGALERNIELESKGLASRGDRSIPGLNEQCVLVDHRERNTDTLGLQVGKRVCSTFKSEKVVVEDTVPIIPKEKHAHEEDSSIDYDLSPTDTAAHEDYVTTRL

[8] = target: T5, Trace amine-associated receptor 1 (Homo sapiens, UniProt Q96RJ0); experiment: Fluorescence-based cell-based high throughput dose response assay to identify agonists of the human trace amine associated receptor 1 (TAAR1).; assay type: functional
T5 sequence (Q96RJ0 whole entry): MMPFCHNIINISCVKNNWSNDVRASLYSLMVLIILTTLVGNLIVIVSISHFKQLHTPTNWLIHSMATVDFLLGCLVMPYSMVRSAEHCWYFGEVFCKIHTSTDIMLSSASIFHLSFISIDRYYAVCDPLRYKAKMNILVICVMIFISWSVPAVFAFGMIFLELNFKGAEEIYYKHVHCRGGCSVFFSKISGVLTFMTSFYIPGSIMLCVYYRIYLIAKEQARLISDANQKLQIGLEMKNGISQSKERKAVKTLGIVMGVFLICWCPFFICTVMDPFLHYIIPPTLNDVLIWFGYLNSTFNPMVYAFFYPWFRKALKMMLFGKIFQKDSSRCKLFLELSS

cells [9] = assay type: functional, cell-based; remark: listed apart in the source
[10] = target: T5, Trace amine-associated receptor 1; experiment: Counterscreen for agonists of the human trace amine associated receptor 1 (hTAAR1): Fluorescence-based cell-based high throughput dose response assay to identify hTAAR1 agonist that also desensitize TAAR1 receptor response.; assay type: functional
[11] = target: T6, Methionyl-tRNA synthetase, putative (Trypanosoma brucei brucei, UniProt Q38C91); assay type: functional, Trypanosoma brucei brucei strain 927/4 GUTat10.1
T6 sequence (Q38C91 whole entry): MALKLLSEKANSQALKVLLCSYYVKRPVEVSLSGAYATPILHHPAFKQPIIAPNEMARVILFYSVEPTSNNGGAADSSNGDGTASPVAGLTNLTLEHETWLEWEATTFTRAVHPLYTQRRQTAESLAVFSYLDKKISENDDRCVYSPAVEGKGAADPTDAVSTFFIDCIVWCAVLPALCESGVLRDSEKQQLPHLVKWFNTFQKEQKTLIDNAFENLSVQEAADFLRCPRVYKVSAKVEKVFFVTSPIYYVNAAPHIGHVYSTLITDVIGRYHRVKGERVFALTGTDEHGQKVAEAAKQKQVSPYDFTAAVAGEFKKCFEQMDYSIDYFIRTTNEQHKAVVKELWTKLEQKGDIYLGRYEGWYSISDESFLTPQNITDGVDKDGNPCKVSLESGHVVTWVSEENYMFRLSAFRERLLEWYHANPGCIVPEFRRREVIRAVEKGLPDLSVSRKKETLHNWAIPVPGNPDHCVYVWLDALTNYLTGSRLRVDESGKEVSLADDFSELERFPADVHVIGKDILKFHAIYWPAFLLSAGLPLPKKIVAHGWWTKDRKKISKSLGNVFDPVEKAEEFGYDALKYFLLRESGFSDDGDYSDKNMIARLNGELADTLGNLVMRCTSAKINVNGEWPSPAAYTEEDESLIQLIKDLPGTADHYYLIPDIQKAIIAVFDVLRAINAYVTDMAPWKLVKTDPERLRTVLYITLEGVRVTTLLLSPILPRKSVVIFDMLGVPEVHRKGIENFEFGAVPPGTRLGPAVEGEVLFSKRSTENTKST

[12] = target: T6, Methionyl-tRNA synthetase, putative; assay type: functional, Trypanosoma brucei brucei strain 927/4 GUTat10.1; remark: listed apart in the source
[13] = Counterscreen for inhibitors of Trypanosoma brucei methionyl tRNA synthetase (MetRS): Luminescence-based cell-based high throughput dose response assay to identify compounds that are cytotoxic to Jurkat human T lymphocyte cells.; assay type: functional
[14] = target: Long-chain-fatty-acid--AMP ligase FadD28 (Mycobacterium tuberculosis, UniProt P9WQ59); experiment: Fluorescence polarization aasay to screen for inhibitors that compete for the binding of FadD28 to a bisubstrate Measured in Biochemical System Using Plate Reader - 2147-01_Inhibitor_Dose_CherryPick_Activity.; assay type: functional, Mycobacterium tuberculosis H37Rv
Major prion protein = Major prion protein (Homo sapiens, UniProt P04156); assay type: functional, cell-based
cells [15] = experiment: cells
Beta-lactamase [16] = target: T7, Beta-lactamase (Pseudomonas aeruginosa, UniProt Q79MP6); experiment: IMP-1 metallo-beta-lactamase inhibitors, dose response, selectivity assay for VIM-2 inhibitor project, biochemical, epi-absorbance (AID 1920)
Beta-lactamase [17] = target: T7, Beta-lactamase; experiment: […] counterscreen for selective VIM-2 inhibitors: dose response biochemical high throughput screening assay to identify inhibitors of IMP-1 metallo-beta-lactamase.
Beta-lactamase [18] = target: Beta-lactamase (Salmonella choleraesuis (strain SC-B67), UniProt Q5J463); experiment: Epi-absorbance-based counterscreen for selective VIM-2 inhibitors: dose response biochemical high throughput screening assay to identify inhibitors of TEM-1 serine-beta-lactamase.

Oc1nc2cccnc2c2ccsc12
IC50 (Galanin receptor type 3): > 29.9 µM (inactive) | EC50 (cells [1]): > 29.9 µM (inactive) | IC50 (H9c2): > 79 µM (inactive)

COc1ccc(NC(S)=NCCN2CCC(C)CC2)cc1Cl
IC50 [2]: 0.999 µM (active) | IC50 [3]: 0.72 µM (active) | IC50 [4]: 11.2 µM (active) | IC50 [5]: 43.9 µM (inactive)

CCOC(=O)C1CCCN(C(c2ccccn2)c2c(C)[nH]c3ccccc23)C1 (configuration not stated)
EC50 (cells [6]): > 29.9 µM (inactive) | EC50 [7]: 5.31 µM (active) | EC50 [8]: 22.3 µM (inactive) | IC50 (cells [9]): > 29.9 µM (inactive) | IC50 [10]: 2.65 µM (active)

OC(c1ccc(Cl)c(Cl)c1)c1nc(-c2ccc(Cl)cc2)c[nH]1 (configuration not stated)
IC50 [11]: 7.79 µM (active) | IC50 [12]: 4.26 µM (active) | IC50 [13]: 51.5 µM (inactive)

O=[N+]([O-])C(=C1SCCS1)C(=C(Cl)Cl)N1CCCCC1
AC50 [14]: > 100 µM (inactive)

COC(=O)[C@]12CCCCC=C1N(Cc1cccc3ccccc13)C(=O)[C@H](CC(=O)NCc1ccc(OC)c(OC)c1)C2
IC50 (Galanin receptor type 3): > 29.9 µM (inactive) | EC50 (cells [1]): > 29.9 µM (inactive)

Cc1noc(NS(=O)(=O)c2ccc(NC(=O)/C=C/c3ccc(C(C)C)cc3)cc2)c1C
AC50 [14]: 30.2 µM (active)

COc1ccc(/C=C2\SC(=O)N=C2N)cc1
IC50 [11]: 119 µM (inactive) | IC50 [12]: 7.57 µM (active) | IC50 [13]: 83.4 µM (inactive)

O=C(O)c1ccccc1Sc1ncnc2sc3c(c12)CCC3
IC50 (Major prion protein): 7.05 µM (active) | IC50 (cells [15]): > 138 µM (inactive) | IC50 (Beta-lactamase [16]): > 59.6 µM (inactive) | IC50 (Beta-lactamase [17]): > 59.6 µM (inactive) | IC50 (Beta-lactamase [18]): > 59.6 µM (inactive)
